The record followed here is PMC11730311 (Scientific Reports, 2025).

A short description of data set [1]: Pharmacokinetic pilot study, plasma exposure after IV dosing. To be noted: for half-life: male, NMRI, mouse, plasma, iv, 700 nmol/kg. The format is in vivo, mouse.
Data set [2] concerns the target human calcitonin gene-related peptide receptor (hCGRP-R) (Homo sapiens, UniProt O60894+Q16602). Put plainly: cell-based.

Starred links: 1 amine or outer side, 2 acyl side, 3 side chain; linkers in the order of their positions; H or OH if unused. Residues, ends and D or L forms follow the SMILES beside them. Groups on a side chain read outwards from the residue. No end group written: not given here. *: point of attachment. C20 diacid = O=C(O)CCCCCCCCCCCCCCCCCCC(=O)*; γGlu = O=C(O)[C@H](CCC(=O)[*:2])N[*:1]

Chain of human calcitonin gene-related peptide receptor (hCGRP-R) (Q16602 23-461): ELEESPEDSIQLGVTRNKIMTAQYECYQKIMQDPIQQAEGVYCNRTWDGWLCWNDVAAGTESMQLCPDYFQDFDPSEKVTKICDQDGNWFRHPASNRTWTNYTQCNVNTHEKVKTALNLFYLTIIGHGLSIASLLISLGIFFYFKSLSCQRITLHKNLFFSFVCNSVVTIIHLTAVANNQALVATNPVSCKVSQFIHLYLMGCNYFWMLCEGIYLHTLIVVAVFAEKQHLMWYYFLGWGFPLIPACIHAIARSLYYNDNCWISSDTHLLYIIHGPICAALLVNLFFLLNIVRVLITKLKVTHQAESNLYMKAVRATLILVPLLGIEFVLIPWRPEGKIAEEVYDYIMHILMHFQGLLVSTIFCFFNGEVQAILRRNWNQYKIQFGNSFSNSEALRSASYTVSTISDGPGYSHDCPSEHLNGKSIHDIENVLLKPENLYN
Chain of human calcitonin gene-related peptide receptor (hCGRP-R) (O60894 27-148): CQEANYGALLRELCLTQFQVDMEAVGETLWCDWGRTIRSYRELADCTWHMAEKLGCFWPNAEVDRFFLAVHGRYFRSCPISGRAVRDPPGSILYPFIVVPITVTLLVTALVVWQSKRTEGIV

`CC(C)C[C@H](NC(=O)CNC(=O)[C@H](C)NC(=O)[C@H](CC(C)C)NC(=O)[C@H](CCCNC(=N)N)NC(=O)[C@H](Cc1c[nH]cn1)NC(=O)[C@@H](NC(=O)[C@@H](N)C(C)C)[C@@H](C)O)C(=O)N[C@@H](CC(C)C)C(=O)N[C@@H](CCCCNC(=O)CC[C@H](NC(=O)CCCCCCCCCCCCCCCCCCC(=O)O)C(=O)O)C(=O)N[C@@H](CCCNC(=N)N)C(=O)N[C@@H](CO)C(=O)NCC(=O)NCC(=O)N[C@H](C(=O)N[C@H](C(=O)N[C@@H](CCCCN)C(=O)N[C@@H](CC(N)=O)C(=O)N[C@@H](CC(N)=O)C(=O)N[C@@H](Cc1ccccc1)C(=O)N[C@H](C(=O)N1CCC[C@H]1C(=O)N[C@H](C(=O)N[C@@H](CC(N)=O)C(=O)N[C@H](C(=O)NCC(=O)N[C@@H](CO)C(=O)N[C@@H](CCCCN)C(=O)N[C@@H](C)C(=O)N[C@@H](Cc1ccccc1)C(N)=O)C(C)C)[C@@H](C)O)C(C)C)C(C)C)C(C)C` [S17K-C20DA-γGlu] (H-VTHRLAGLLK([γGlu-C20 diacid])RSGGVVKNNFVPTNVGSKAF-NH2): in data set [1], the half-life was 12.3 h.

Regarding `CC(C)C[C@H](NC(=O)CNC(=O)[C@H](C)NC(=O)[C@H](CC(C)C)NC(=O)[C@H](CCCNC(=N)N)NC(=O)[C@H](Cc1c[nH]cn1)NC(=O)[C@@H](NC(=O)[C@@H](N)C(C)C)[C@@H](C)O)C(=O)N[C@@H](CC(C)C)C(=O)N[C@@H](CO)C(=O)N[C@@H](CCCNC(=N)N)C(=O)N[C@@H](CO)C(=O)NCC(=O)NCC(=O)N[C@H](C(=O)N[C@H](C(=O)N[C@@H](CCCCN)C(=O)N[C@@H](CCCCNC(=O)CC[C@H](NC(=O)CCCCCCCCCCCCCCCCCCC(=O)O)C(=O)O)C(=O)N[C@@H](CC(N)=O)C(=O)N[C@@H](Cc1ccccc1)C(=O)N[C@H](C(=O)N1CCC[C@H]1C(=O)N[C@H](C(=O)N[C@@H](CC(N)=O)C(=O)N[C@H](C(=O)NCC(=O)N[C@@H](CO)C(=O)N[C@@H](CCCCN)C(=O)N[C@@H](C)C(=O)N[C@@H](Cc1ccccc1)C(N)=O)C(C)C)[C@@H](C)O)C(C)C)C(C)C)C(C)C` [hαCGRP8-37N25K-C20DA-γGlu], in data set [2], the Kb is 4.68 nM. For the same compound, the half-life in data set [1] was 7.3 h.

The compound `CC(C)C[C@H](NC(=O)[C@H](CCCNC(=N)N)NC(=O)[C@H](Cc1c[nH]cn1)NC(=O)[C@@H](NC(=O)[C@@H](N)C(C)C)[C@@H](C)O)C(=O)N[C@@H](C)C(=O)N[C@@H](CCCCNC(=O)CC[C@H](NC(=O)CCCCCCCCCCCCCCCCCCC(=O)O)C(=O)O)C(=O)N[C@@H](CC(C)C)C(=O)N[C@@H](CC(C)C)C(=O)N[C@@H](CO)C(=O)N[C@@H](CCCNC(=N)N)C(=O)N[C@@H](CO)C(=O)NCC(=O)NCC(=O)N[C@H](C(=O)N[C@H](C(=O)N[C@@H](CCCCN)C(=O)N[C@@H](CC(N)=O)C(=O)N[C@@H](CC(N)=O)C(=O)N[C@@H](Cc1ccccc1)C(=O)N[C@H](C(=O)N1CCC[C@H]1C(=O)N[C@H](C(=O)N[C@@H](CC(N)=O)C(=O)N[C@H](C(=O)NCC(=O)N[C@@H](CO)C(=O)N[C@@H](CCCCN)C(=O)N[C@@H](C)C(=O)N[C@@H](Cc1ccccc1)C(N)=O)C(C)C)[C@@H](C)O)C(C)C)C(C)C)C(C)C` [G14K-C20DA-γGlu] (H-VTHRLAK([γGlu-C20 diacid])LLSRSGGVVKNNFVPTNVGSKAF-NH2) showed a half-life in data set [1] of 10.1 h.

On to `CC(C)C[C@H](NC(=O)CNC(=O)[C@H](C)NC(=O)[C@H](CC(C)C)NC(=O)[C@H](CCCNC(=N)N)NC(=O)[C@H](Cc1c[nH]cn1)NC(=O)[C@@H](NC(=O)[C@@H](N)C(C)C)[C@@H](C)O)C(=O)N[C@@H](CC(C)C)C(=O)N[C@@H](CO)C(=O)N[C@@H](CCCNC(=N)N)C(=O)N[C@@H](CCCCNC(=O)CC[C@H](NC(=O)CCCCCCCCCCCCCCCCCCC(=O)O)C(=O)O)C(=O)NCC(=O)NCC(=O)N[C@H](C(=O)N[C@H](C(=O)N[C@@H](CCCCN)C(=O)N[C@@H](CC(N)=O)C(=O)N[C@@H](CC(N)=O)C(=O)N[C@@H](Cc1ccccc1)C(=O)N[C@H](C(=O)N1CCC[C@H]1C(=O)N[C@H](C(=O)N[C@@H](CC(N)=O)C(=O)N[C@H](C(=O)NCC(=O)N[C@@H](CO)C(=O)N[C@@H](CCCCN)C(=O)N[C@@H](C)C(=O)N[C@@H](Cc1ccccc1)C(N)=O)C(C)C)[C@@H](C)O)C(C)C)C(C)C)C(C)C` [S19K-C20DA-γGlu] (H-VTHRLAGLLSRK([γGlu-C20 diacid])GGVVKNNFVPTNVGSKAF-NH2), for which the “difference in half-life versus hαCGRP8-37N25K-C20DA-γGlu” value in data set [1] (male NMRI mice, IV) was ~ 6 h. This compound showed a half-life in data set [1] of 13.7 h.

For “VTHRLAGLLSRSGGVVKNNFVPTNVGSKSF-NH2 [hαCGRP8-37A36S]”, the Kb in data set [2] is 1.66 nM.

Take `CC(C)C[C@H](NC(=O)CNC(=O)[C@H](C)NC(=O)[C@H](CC(C)C)NC(=O)[C@H](CCCNC(=N)N)NC(=O)[C@H](Cc1c[nH]cn1)NC(=O)[C@@H](NC(=O)[C@@H](N)C(C)C)[C@@H](C)O)C(=O)N[C@@H](CC(C)C)C(=O)N[C@@H](CO)C(=O)N[C@@H](CCCNC(=N)N)C(=O)N[C@@H](CO)C(=O)NCC(=O)NCC(=O)N[C@H](C(=O)N[C@H](C(=O)N[C@@H](CCCCN)C(=O)N[C@@H](CCCCNC(=O)CC[C@H](NC(=O)CCCCCCCCCCCCCCCCCCC(=O)O)C(=O)O)C(=O)N[C@@H](CC(N)=O)C(=O)N[C@@H](Cc1ccccc1)C(=O)N[C@H](C(=O)N1CCC[C@H]1C(=O)N[C@H](C(=O)N[C@@H](CC(N)=O)C(=O)N[C@H](C(=O)NCC(=O)N[C@@H](CO)C(=O)N[C@@H](CCCCN)C(=O)N[C@@H](CO)C(=O)N[C@@H](Cc1ccccc1)C(N)=O)C(C)C)[C@@H](C)O)C(C)C)C(C)C)C(C)C` [hαCGRP8-37A36S, N25K-C20DA-γGlu] (H-VTHRLAGLLSRSGGVVKK([γGlu-C20 diacid])NFVPTNVGSKSF-NH2): in data set [2], the Kb was 6.76 nM.

`CC(C)C[C@H](NC(=O)CNC(=O)[C@H](C)NC(=O)[C@H](CC(C)C)NC(=O)[C@H](CCCNC(=N)N)NC(=O)[C@H](Cc1c[nH]cn1)NC(=O)[C@@H](NC(=O)[C@@H](N)C(C)C)[C@@H](C)O)C(=O)N[C@@H](CC(C)C)C(=O)N[C@@H](CO)C(=O)N[C@@H](CCCNC(=N)N)C(=O)N[C@@H](CO)C(=O)N[C@@H](CCCCNC(=O)CC[C@H](NC(=O)CCCCCCCCCCCCCCCCCCC(=O)O)C(=O)O)C(=O)NCC(=O)N[C@H](C(=O)N[C@H](C(=O)N[C@@H](CCCCN)C(=O)N[C@@H](CC(N)=O)C(=O)N[C@@H](CC(N)=O)C(=O)N[C@@H](Cc1ccccc1)C(=O)N[C@H](C(=O)N1CCC[C@H]1C(=O)N[C@H](C(=O)N[C@@H](CC(N)=O)C(=O)N[C@H](C(=O)NCC(=O)N[C@@H](CO)C(=O)N[C@@H](CCCCN)C(=O)N[C@@H](C)C(=O)N[C@@H](Cc1ccccc1)C(N)=O)C(C)C)[C@@H](C)O)C(C)C)C(C)C)C(C)C` [G20K-C20DA-γGlu] (H-VTHRLAGLLSRSK([γGlu-C20 diacid])GVVKNNFVPTNVGSKAF-NH2) had a half-life in data set [1] of 7.5 h.
